# Source: PMC5104480 (PLoS ONE, 2016)
# Legend:
# [1] = cited from earlier work
# [2] = target: T1, HLMs, UGT1A1, UGT1A6 and UGT1A9 (Homo sapiens, UniProt P22309); details: HLMs and UGT1A1; substrate chrysoeriol; compared with control
# T1 sequence (P22309 26-533): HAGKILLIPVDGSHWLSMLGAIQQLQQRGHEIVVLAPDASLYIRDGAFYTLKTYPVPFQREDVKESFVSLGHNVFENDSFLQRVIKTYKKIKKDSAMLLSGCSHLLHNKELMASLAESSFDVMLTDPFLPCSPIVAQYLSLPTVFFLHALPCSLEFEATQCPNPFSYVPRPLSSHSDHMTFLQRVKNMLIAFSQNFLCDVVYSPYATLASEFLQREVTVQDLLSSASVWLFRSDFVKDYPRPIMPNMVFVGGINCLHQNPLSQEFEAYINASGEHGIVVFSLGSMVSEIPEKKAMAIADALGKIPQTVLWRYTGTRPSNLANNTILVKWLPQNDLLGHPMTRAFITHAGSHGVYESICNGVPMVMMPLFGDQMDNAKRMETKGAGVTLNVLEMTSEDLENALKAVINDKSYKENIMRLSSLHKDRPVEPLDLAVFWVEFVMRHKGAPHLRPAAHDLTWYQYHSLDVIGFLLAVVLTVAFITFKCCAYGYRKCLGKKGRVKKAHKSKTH
# Method: (§1) The protein concentrations of the HLMs and expressed UGTs were 0.0021–0.0106 mg protein/mL. All of the incubations were run at 37°C for 30 min, and the way of pretreated and determined samples were as discribed above.
# [3] = target: T2, HLMs, UGT1A1, UGT1A6 and UGT1A9 (Homo sapiens, UniProt O60656); details: HLMs and UGT1A9, compared with control
# T2 sequence (O60656 26-530): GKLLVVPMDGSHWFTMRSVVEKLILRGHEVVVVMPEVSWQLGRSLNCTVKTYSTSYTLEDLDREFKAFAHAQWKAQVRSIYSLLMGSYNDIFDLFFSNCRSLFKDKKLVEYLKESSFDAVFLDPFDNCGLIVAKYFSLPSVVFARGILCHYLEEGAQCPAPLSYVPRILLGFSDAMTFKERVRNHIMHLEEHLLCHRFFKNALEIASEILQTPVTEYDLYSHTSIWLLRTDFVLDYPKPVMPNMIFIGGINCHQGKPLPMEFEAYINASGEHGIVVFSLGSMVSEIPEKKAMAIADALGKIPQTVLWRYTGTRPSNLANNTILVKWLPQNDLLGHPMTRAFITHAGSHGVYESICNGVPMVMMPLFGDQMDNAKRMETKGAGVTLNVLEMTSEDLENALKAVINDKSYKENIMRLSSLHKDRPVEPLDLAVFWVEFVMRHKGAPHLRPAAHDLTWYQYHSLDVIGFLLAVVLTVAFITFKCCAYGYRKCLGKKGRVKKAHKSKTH
# Method: as §1
# [4] = system: A549 cells; test: MTT assay, A549 cells, with and without Ko143; assay type: cell-based
# Method: The cells were further incubated at 37°C with 5% CO2 for 48 h. The culture medium was removed and replaced with 100 μL 0.5 mg/mL 3-(4, 5-dimethylthiozol-2-yl)-3, 5-dipheryl tetrazolium bromide (MTT) solution and incubated at 37°C for 4 h. The supernatants were discarded, and 150 μL of dimethyl sulfoxide was added to each well. The plates were shaken for 10 min at room temperature, and then, the stained formazan product was determined at 570 nm with a multimode plate reader.
# [5] = system: HepG2 cells; test: MTT assay, HepG2 cells, with and without Ko143; assay type: cell-based
# Method: The cells were further incubated at 37°C with 5% CO2 for 48 h. […] The supernatants were discarded, and 150 μL of dimethyl sulfoxide was added to each well. The plates were shaken for 10 min at room temperature, and then, the stained formazan product was determined at 570 nm with a multimode plate reader.
# [6] = system: HeLa cells; test: Glucuronide formation in HeLa cells (control); details: HeLa cells without UGT1A9 (control)
# Method: HeLa and HeLa—UGT1A9 cells were seeded into six-well plate at a density of 1.0 × 10^5 cells/well, and were grown using Dulbecco’s modified Eagle’smedium (DMEM) supplemented with 10% fetal bovine serum (FBS). After 3 ~ 4 days of seeding, the cells can be used for the glucuronidation experiments.
# Brifely speaking, the cells were incubated at 37°C with loading solution (2 mL). […] The collected samples were mixed with 250 μL acetonitrile containing 25 nM tilianin and then analyzed by UHPLC—MS/MS after centrifugation at 13,000 rpm for 30 min. After the excretion experiment, the cells were washed and selected in 300 μL HBSS buffer, and then the cells were ultrasonicated. After centrifugation at 13,000 rpm for 30 min, the 200 μL supernatant was obtained and mixed with 100 μL acetonitrile containing 25 nM tilianin. The mixture was then centrifuged at 13,000 rpm for 30 min and prepared for subsequent UHPLC—MS/MS analysis.
# [7] = 10 μM substrate with 5 or 10 μM Ko143, 48 h
# [8] = 10 μM substrate with 5 μM Ko143, 48 h
# [9] = 10 μM substrate with 10 μM Ko143, 48 h
molecule,measurement,setting,value
genistein glucuronides,Km,[1],15.1 µM
C=CC1=C(C)/C(=C/c2[nH]c(Cc3[nH]c(/C=C4\NC(=O)C(C)=C4C=C)c(C)c3CCC(=O)O)c(CCC(=O)O)c2C)NC1=O [bilirubin],effect on formation of Chr-4′-G,[2],significantly decrease
Cc1ccc(C(C)C)cc1O [carvacrol],effect on formation of Chr-7-G,[3]; substrate chrysoeriol,significantly decrease
same,effect on formation of Dio-3′-G,[3]; substrate diosmetin,significantly decrease
"COc1ccc(-c2cc(=O)c3c(O)cc(O)cc3o2)cc1O [diosmetin, 5,7,3′-trihydroxy-4′-methoxyflavone]",change of cytotoxicity when treated with Ko143,[4]; [7],little change
same,decrease of cell viability compared with substrate alone,[5]; [8],12%
same,decrease of cell viability compared with substrate alone,[5]; [9],13%
"COc1cc(-c2cc(=O)c3c(O)cc(O)cc3o2)ccc1O [chrysoeriol, 5,7,4′-trihydroxy-3′-methoxyflavone]",decrease of cell viability compared with substrate alone,[4]; [8],12%
same,decrease of cell viability compared with substrate alone,[4]; [9],18%
same,change of cytotoxicity when treated with Ko143,[5]; [7],little change
same,glucuronided metabolites in HeLa cells,[6],did not find
acacetin glucuronide,Km,[1],14.5 µM
